Values joined by “and” are separate entries in the source; they are usually repeats but may differ in a detail not shown here. Equal values may be shown once.
Key:
[1] = system: gastric acid secretion of the conscious male rat; experiment: Inhibitory effect on gastric acid secretion of the conscious male rat at timed intervals after oral administration; type: in vivo; set-up: inhibition of gastric acid secretion: concentration or dose not given beside the values; conditions: for % inhibition of gastric acid secretion: male rat; for inhibition of gastric acid secretion: after 5 hr of oral administration
[2] = system: gastric acid secretion (histamine-stimulated acid output), pylorus-ligated male rats; experiment: Initial inhibition of gastric acid secretion after intraduodenal administration to pylorus-ligated rats; type: in vivo; conditions: 10 μmole/kg, after pylorus ligation, histamine 30 mg/kg s.c., acid output over four hours, rat
Description: Histamine (30 mg/kg) was subcutaneously injected to stimulate acid production. The abdomen was surgically closed immediately. Four hours later the esophagus was ligated and the stomach was removed. Acid output was measured as described above.

[3] = Relative plasma concentration of OMEPRAZOLE in male rat after oral administration; conditions: male rat;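 also: Sprague-Dawley rats fasted one day with water available, dosed orally with prodrug compounds, OMEPRAZOLE quantified by HPLC in plasma from serial blood draws, control given OMEPRAZOLE itself orally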
Description: Male adult rats of the Sprague-Dawley strain were used for determining the concentration of OMEPRAZOLE in the plasma. All rats were derived of food but not of water for one day. Examples of compounds of the invention (2 mg/kg of rat weight) were orally administrated to male rats (weighing 250 g to 270 g) and blood samples (0.3 ml) were taken at timed intervals. Blood samples were centrifuged and plasma was taken out. Plasma was extracted with 0.5 ml of dichloromethane. Dichloromethane layer was evaporated by nitrogen/air blowing. The residual materials were dissolved in 0.5 ml of 40% acetonitrile in 10 mM phosphate buffer (pH 7.4). Amounts of OMEPRAZOLE were determined by HPLC analysis. As a control, OMEPRAZOLE (4 mg/kg of rat weight) was orally administrated.

[4] = Chemical stability: hydrolysis half-life in buffer solution at various pH; type: physicochemical
Description: By way of concrete examples, the following tests and results are described. […] This is consistent with the knowledge that the compounds obtained by hydrolysis e. g. LANSOPRAZOLE, OMEPRAZOLE, PANTOPRAZOLE and RABEPRAZOLE are well known H,K-ATPase inhibitors. […] Another good example is 2-(2-carbamoylmethoxy-4-{2-[4-(3-methoxypropoxy)-3-methyl pyridin-2-yl methylsulfinyl]benzimidazole-1-sulfonyl}phenoxy)acetamide. The half life of this compound dependes on pH. […] Based on these measured characteristics the compound 2-(2-carbamoylmethoxy-4-{2-[4-(3-methoxypropoxy)-3-methyl pyridin-2-yl methylsulfinyl]benzimidazole-1-sulfonyl}phenoxy)acetamide is expected to be well absorbed, and slowly release the parent RABEPRAZOLE in the blood, resulting in long-lasting in vivo activity. This compound can also be administered intravenously in an aqueous solution at pH 7.4 which solution may include 2-hydroxypropyl-β-cyclodextrin.
The chemical stability of the compounds of the invention has been followed kinetically at low concentration at 37° C. in a buffer solution composed of 0.2M NaCl, 50 mM sodium phosphate, pH 7.4, 2% bovine albumin serum, 5-10% methanol.
The hydrolysis of 2-(2-carbamoylmethoxy-4-{2-[4-(3-methoxy-propoxy)-3-methyl-pyridin-2-ylmethanesulfinyl]-benzimidazole-1-sulfonyl}-phenoxy)-acetamide was measured at various pH.

[5] = between 5-8 hours after oral administration, 10 μmole/kg, histamine and carbachol stimulated
[6] = between 4-7 hr after oral administration
[7] = between 5.5-8.5 hours after oral administration, 10 μmole/kg, histamine and carbachol stimulated
[8] = 20 min after oral administration, examples 2 mg/kg, OMEPRAZOLE 4 mg/kg
[9] = 40 min after oral administration, examples 2 mg/kg, OMEPRAZOLE 4 mg/kg
[10] = 60 min after oral administration, examples 2 mg/kg, OMEPRAZOLE 4 mg/kg
[11] = 80 min after oral administration, examples 2 mg/kg, OMEPRAZOLE 4 mg/kg
[12] = 100 min after oral administration, examples 2 mg/kg, OMEPRAZOLE 4 mg/kg
[13] = 120 min after oral administration, examples 2 mg/kg, OMEPRAZOLE 4 mg/kg
[14] = 140 min after oral administration, 2 mg/kg
[15] = 160 min after oral administration, 2 mg/kg
[16] = 180 min after oral administration, 2 mg/kg
[17] = 210 min after oral administration, 2 mg/kg
[18] = 240 min after oral administration, 2 mg/kg
[19] = 270 min after oral administration, 2 mg/kg
[20] = 300 min after oral administration, 2 mg/kg
[21] = 330 min after oral administration, 2 mg/kg
[22] = 360 min after oral administration, 2 mg/kg

For “2-{4-[(5-methoxy-2-{[(3.5-dimethyl-4-methoxy-2-pyridyl)methyl]sulfinyl}benzimidazol-1-yl)sulfonyl]phenoxy}acetamide and 2-{4-[(6-methoxy-2-{[(3,5-dimethyl-4-methoxy-2-pyridyl)methyl]sulfinyl}benzimidazol-1-yl)sulfonyl]phenoxy}acetamide [Example 53]”, the “% inhibition of gastric acid secretion” value [1, 5] was 65.2 ± 11.3%.
With `Cc1c(OCC(F)(F)F)ccnc1C[S+]([O-])c1nc2ccccc2n1S(=O)(=O)c1ccc(OCC(N)=O)c(OCC(N)=O)c1` (stereo not shown) [Example 79, 2-(2-Carbamoylmethoxy-4-{2-[3-methyl-4-(2,2,2-trifluoro-ethoxy)-pyridin-2-ylmethanesulfinyl]-benzimidazole-1-sulfonyl}-phenoxy)-acetamide] the “% inhibition of gastric acid secretion” value [1, 6] was 36.8%.
With “2-{2-carbamoylmethoxy-4-[5-methoxy-2-((4-methoxy-3,5-dimethyl pyridin-2-yl)methylsulfinyl)benzimidazole-1-sulfonyl]phenoxy}acetamide and 2-{2-carbamoylmethoxy-4-[6-methoxy-2-((4-methoxy-3,5-dimethyl pyridin-2-yl)methylsulfinyl)benzimidazole-1-sulfonyl]phenoxy}acetamide [Example 74]” the “inhibition of histamine-stimulated acid output” value [2] was 64.2%, the “gastric acid secretion after administration to male rat (in words)” value ([1]; administrated to male rat) was “significantly and continuously inhibited” and the “% inhibition of gastric acid secretion” value [1, 7] was 49.7 ± 3.7%. For the same compound, the “% inhibition of gastric acid secretion” value ([1]; between 5.5-8.5 hours after oral administration, 10 μmole/kg, histamine and carbachol stimulated, listed as 2-{2-carbamoylmethoxy-4-[5-methoxy-2-(4-methoxy-3,5-dimethyl pyridin-2-yl)metha) was 49.7%.
For “N-(2-{4-[5-methoxy-2-(4-methoxy-3,5-dimethyl pyridin-2-yl methylsulfinyl)benzimidazole-1-sulfonyl]-phenoxy}ethyl)-N,N,N-trimethyl ammonium trifluoromethanesulfonate and N-(2-{4-[6-methoxy-2-(4-methoxy-3,5-dimethyl pyridin-2-yl methylsulfinyl)benzimidazole-1-sulfonyl]-phenoxy}ethyl)-N,N,N-trimethyl ammonium trifluoromethanesulfonate [Example 73]”, the “% inhibition of gastric acid secretion” value [1, 5] was 21.8 ± 11.7%.
With “N-[4-[[5-methoxy-2-[[(3,5-dimethyl-4-methoxy-2-pyridyl)methyl]sulfinyl]benzimidazol-1-yl]sulfonyl]phenyl]urea and N-[4-[[6-methoxy-2-[[(3,5-dimethyl-4-methoxy-2-pyridyl)methyl]sulfinyl]benzimidazol-1-yl]sulfonyl]phenyl]urea [Example 29]” the “Relative concentration of OMEPRAZOLE released in the plasma” value (shortened to “Relative concentration”) [3, 8] was 4.5 arbitrary unit, the “Relative concentration” value [3, 9] was 14 arbitrary unit and the “Relative concentration” value [3, 10] was 8.5 arbitrary unit. The “Relative concentration” value [3, 11] was 3.5 arbitrary unit, the “Relative concentration” value [3, 12] was 2.5 arbitrary unit and the “Relative concentration” value [3, 13] was 1.875 arbitrary unit. For the same compound, the “Relative concentration” value [3, 14] was 0.625 arbitrary unit, the “Relative concentration” value [3, 15] was 0.6 arbitrary unit and the “Relative concentration” value [3, 16] was 0.6 arbitrary unit. The “Relative concentration” value [3, 17] was 1.5 arbitrary unit, the “Relative concentration” value [3, 18] was 0.5 arbitrary unit and the “Relative concentration” value [3, 19] was 0.5 arbitrary unit. The “Relative concentration” value [3, 20] was 0.2 arbitrary unit, the “Relative concentration” value [3, 21] was 0.1 arbitrary unit and the “Relative concentration” value [3, 22] was 0.05 arbitrary unit.
With “1-[4-[3-(morpholin-4-yl) propoxy]benzenesulfonyl]-5-methoxy-2-[[(3,5-dimethyl-4-methoxy-2-pyridyl)methyl]sulfinyl]-1H-benzimidazole and 1-[4-[3-(morpholin-4-yl) propoxy]benzenesulfonyl]-6-methoxy-2-[[(3.5-dimethyl-4-methoxy-2-pyridyl)methyl]sulfinyl]-1H-benzimidazole [Example 37]” the “Relative concentration” value [3, 8] was 1.67 arbitrary unit, the “Relative concentration” value [3, 9] was 14.36 arbitrary unit and the “Relative concentration” value [3, 10] was 3.5 arbitrary unit. For the same compound, the “Relative concentration” value [3, 11] was 1.88 arbitrary unit, the “Relative concentration” value [3, 12] was 1.88 arbitrary unit and the “Relative concentration” value [3, 13] was 1.5 arbitrary unit. The “Relative concentration” value [3, 14] was 1.5 arbitrary unit, the “Relative concentration” value [3, 15] was 1 arbitrary unit and the “Relative concentration” value [3, 16] was 1 arbitrary unit. The “Relative concentration” value [3, 17] was 0.7 arbitrary unit, the “Relative concentration” value [3, 18] was 0.7 arbitrary unit and the “Relative concentration” value [3, 19] was 0.7 arbitrary unit. For the same compound, the “Relative concentration” value [3, 20] was 0.4 arbitrary unit, the “Relative concentration” value [3, 21] was 0.2 arbitrary unit and the “Relative concentration” value [3, 22] was 0.1 arbitrary unit. The “Relative concentration” value ([3]; 390 min after oral administration, 2 mg/kg) was 0.1 arbitrary unit.
With `Cc1c(OCC(F)(F)F)ccnc1C[S+]([O-])c1nc2ccccc2n1S(=O)(=O)c1ccc(OCC(N)=O)cc1` (stereo not shown) [Example 54] the “% inhibition of gastric acid secretion” value [1, 6] was 46.9% and the “% inhibition of gastric acid secretion” value ([1]; between 4-7 hr after oral administration, listed as 2-(4-{[2-({[3-Methyl-4-(2,2,2-trifluoroethoxy)-2-pyridyl]methyl}sulfinyl) benzim)) was 46.9%.
In the case of `COCCCOc1ccnc(C[S+]([O-])c2nc3ccccc3n2S(=O)(=O)c2ccc(OCC(N)=O)c(OCC(N)=O)c2)c1C` (stereo not shown) [Example 77, 2-(2-carbamoylmethoxy-4-{2-[4-(3-methoxypropoxy)-3-methylpyridin-2-ylmethylsulfinyl]benzimidazole-1-sulfonyl}phenoxy)acetamide], the half-life of hydrolysis ([4]; 2 mg/mL, pH 7.4) is reported as 3.73 h, the half-life ([4]; bovine, pH 7.4, half-life of hydrolysis) is reported as roughly 22.2 h and the half-life of hydrolysis ([4]; buffer, pH 2) is reported as 1.8 h. The half-life ([4]; buffer, pH 2, half-life of hydrolysis) was roughly 1.8 h, the half-life of hydrolysis ([4]; buffer, pH 8) was 10.7 h and the half-life ([4]; buffer, pH 8, half-life of hydrolysis) was roughly 10.7 h. The half-life at 2 mg/mL ([4]; pH 7.4, half-life of hydrolysis) was roughly 3.7 h, the “inhibition of gastric acid secretion” value [1] was 56% and the “% inhibition of gastric acid secretion” value [1, 6] was 56%.
For `Cc1c(OCC(F)(F)F)ccnc1C[S+]([O-])c1nc2ccccc2[nH]1` (stereo not shown) [LANSOPRAZOLE, reference compound], the “% inhibition of gastric acid secretion” value [1, 6] was 29% and the “% inhibition of gastric acid secretion” value ([1]; between 4-7 hr after oral administration, listed as LANOPRAZOLE) was 29%.
In the case of “1-(Pyridine-3-sulfonyl)-5-methoxy-2-[[(3,5-dimethyl-4-methoxy-2-pyridylmethyl]sulfinyl]-1H-benzimidazole and 1-(pyridine-3-sulfonyl-6-methoxy-2-[[(3,5-dimethyl-4-methoxy-2-pyridyl)methyl]sulfinyl]-1H-benzimidazole [Example 25]”, the “% inhibition of gastric acid secretion” value [1, 5] is reported as 61% and 61.3 ± 16.1%.
With “N-(carbamoylmethyl)-2-{4-[(5-methoxy-2-{[(3,5-dimethyl-4-methoxy-2-pyridyl)methyl]sulfinyl}benzimidazol-1-yl)sulfonyl]phenoxy}acetamide and N-(carbamoylmethyl)-2-{4-[(6-methoxy-2-{[(3.5-dimethyl-4-methoxy-2-pyridyl)methyl]sulfinyl}benzimidazol-1-yl)sulfonyl]phenoxy}acetamide [Example 62]” the “% inhibition of gastric acid secretion” value [1, 7] was 14.1 ± 7.5%.
With `COCCCOc1ccnc(C[S+]([O-])c2nc3ccccc3[nH]2)c1C` (stereo not shown) [RABEPRAZOLE, reference compound] the “inhibition of gastric acid secretion” value [1] was 32% and the “% inhibition of gastric acid secretion” value [1, 6] was 32%.
